Type in all cases: biochemical
Experiment [1] addresses ubiquitin~Cdc34A thioester (Homo sapiens, UniProt P0CG48+P49427, K48R). Briefly: Spontaneous hydrolysis of the ubiquitin~Cdc34A^FL thioester. The settings on record: 100 μM CC0651.
The target of experiment [2] is T1, Cdc34A^Glu133Arg (Homo sapiens, UniProt P49427, E133R).
T1 sequence (P49427 1-236 E133R): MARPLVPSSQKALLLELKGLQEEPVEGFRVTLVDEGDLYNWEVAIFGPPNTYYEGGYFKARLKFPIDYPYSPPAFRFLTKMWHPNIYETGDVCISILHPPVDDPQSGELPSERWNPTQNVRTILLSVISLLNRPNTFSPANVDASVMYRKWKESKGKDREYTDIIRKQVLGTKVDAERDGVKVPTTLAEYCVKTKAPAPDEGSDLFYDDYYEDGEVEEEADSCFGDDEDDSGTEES
In words: Sic1-SCF^Cdc4 ubiquitination assay with Cdc34A^Glu133Arg mutant. The settings on record: Cdc34A^Glu133Arg mutant, wild type ubiquitin.

In experiment [3] the target is Cdc34A^Glu133Arg (Homo sapiens, UniProt P49427, E133R). The experiment is described as above. The settings on record: Cdc34A^Glu133Arg mutant with Ub^Arg42Glu mutant.

Experimental findings from article PMC3905752 (Nature chemical biology, 2013) are described below.

As to `COCC(=O)N[C@@H](Cc1ccc(-c2cc(Cl)cc(Cl)c2)cc1)[C@H](O)[C@@H](O)C(=O)O` [CC0651, (2R,3S,4S)-5-(3′,5′-Dichloro-[1,1′-biphenyl]-4-yl)-2,3-dihydroxy-4-(2 methoxyacetamido)pentanoic acid], in experiment [1], the “Effect on hydrolysis of the ubiquitin~Cdc34A thioester to water” value is reported as “inhibited”. Besides, the results for the “Sensitivity of Sic1 ubiquitination to CC0651” value in experiment [2] and in experiment [3] were “insensitivity” and “restored”, respectively.
